# Measurements from patent US9359358B2, “Cyclohexyl azetidine derivatives as JAK inhibitors” (Incyte Holdings Corporation, priority 2011, dated 2016).
# Assays:
# human JAK2 = molecular target: T1, human JAK2 (Homo sapiens, UniProt O60674); assay: In Vitro JAK Kinase Assay (HTRF, phosphorylation of a biotinylated peptide), JAK2; format: biochemical; settings: Table 5; assay of Example A
# T1 construct: JAK2 (a.a. 828-1132); His tag (N); made in house; host or cells: insect cells (baculovirus)
# Summary of the method: (§1)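 HTRF detection (SA-APC plus Eu-labeled anti-phosphotyrosine Py20, 40 min after EDTA stop) quantified biotinylated-peptide phosphorylation. Kinase reactions with human JAK1 or JAK2 catalytic domains lasted 1 h at room temperature.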
# human JAK1 = molecular target: T2, human JAK1 (Homo sapiens, UniProt P23458); assay: In Vitro JAK Kinase Assay (HTRF, phosphorylation of a biotinylated peptide), JAK1; format: biochemical; settings: Table 5; catalytic domain a.a. 837-1142, assay of Example A
# T2 construct: human JAK1 (a.a. 837-1142); His tag (N); made in house; host or cells: insect cells (baculovirus)
# Summary of the method: as §1
# T1 sequence (O60674 828-1132): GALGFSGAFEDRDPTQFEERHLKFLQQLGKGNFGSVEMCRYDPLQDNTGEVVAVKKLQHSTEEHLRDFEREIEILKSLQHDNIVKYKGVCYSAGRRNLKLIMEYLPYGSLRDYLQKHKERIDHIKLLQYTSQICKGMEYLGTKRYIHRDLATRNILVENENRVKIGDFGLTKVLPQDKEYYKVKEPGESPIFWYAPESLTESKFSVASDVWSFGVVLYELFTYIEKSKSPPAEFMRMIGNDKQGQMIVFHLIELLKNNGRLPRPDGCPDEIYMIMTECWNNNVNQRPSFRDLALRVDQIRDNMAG
# T2 sequence (P23458 849-1154): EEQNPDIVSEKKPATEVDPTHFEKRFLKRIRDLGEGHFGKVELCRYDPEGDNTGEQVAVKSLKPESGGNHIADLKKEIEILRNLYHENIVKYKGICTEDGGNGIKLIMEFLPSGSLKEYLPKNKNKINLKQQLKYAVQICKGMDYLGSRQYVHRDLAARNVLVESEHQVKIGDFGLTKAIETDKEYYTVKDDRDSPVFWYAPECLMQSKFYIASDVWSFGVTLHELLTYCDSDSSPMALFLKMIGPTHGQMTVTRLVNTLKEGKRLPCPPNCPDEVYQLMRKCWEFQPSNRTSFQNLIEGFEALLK
Compound,JAK2/JAK1 IC50 ratio (human JAK2),IC50 (human JAK1)
"CCNCc1cc(O[C@H]2CC[C@@H](N3CC(CC#N)(n4cc(-c5ncnc6[nH]ccc56)cn4)C3)CC2)nc(C(F)(F)F)c1 [Example 65, {1-(cis-4-{[4-[(ethylamino)methyl]-6-(trifluoromethyl)pyridin-2-yl]oxy}cyclohexyl)-3-[4-(7H-pyrrolo[2,3-d]pyrimidin-4-yl)-1H-pyrazol-1-yl]azetidin-3-yl}acetonitrile tris(trifluoroacetate)]",≧10,< 10 nM
"CN(C)Cc1cc(O[C@H]2CC[C@@H](N3CC(CC#N)(n4cc(-c5ncnc6[nH]ccc56)cn4)C3)CC2)nc(C(F)(F)F)c1 [Example 68, {1-(cis-4-{[4-[(dimethylamino)methyl]-6-(trifluoromethyl)pyridin-2-yl]oxy}cyclohexyl)-3-[4-(7H-pyrrolo[2,3-d]pyrimidin-4-yl)-1H-pyrazol-1-yl]azetidin-3-yl}acetonitrile tris(trifluoroacetate)]",≧10,< 10 nM
"N#CCC1(n2cc(-c3ncnc4[nH]ccc34)cn2)CN([C@H]2CC[C@@H](Oc3cc(CNCCCO)cc(C(F)(F)F)n3)CC2)C1 [Example 70, {1-(cis-4-{[4-{[(3-hydroxypropyl)amino]methyl}-6-(trifluoromethyl)pyridin-2-yl]oxy}cyclohexyl)-3-[4-(7H-pyrrolo[2,3-d]pyrimidin-4-yl)-1H-pyrazol-1-yl]azetidin-3-yl}acetonitrile tris(trifluoroacetate)]",≧10,< 10 nM
"N#CCC1(n2cc(-c3ncnc4[nH]ccc34)cn2)CN([C@H]2CC[C@@H](Oc3cc(CNC4CC4)cc(C(F)(F)F)n3)CC2)C1 [Example 72, {1-(cis-4-{[4-[(cyclopropylamino)methyl]-6-(trifluoromethyl)pyridin-2-yl]oxy}cyclohexyl)-3-[4-(7H-pyrrolo[2,3-d]pyrimidin-4-yl)-1H-pyrazol-1-yl]azetidin-3-yl}acetonitrile tris(trifluoroacetate)]",≧10,< 20 nM
"N#CCC1(n2cc(-c3ncnc4[nH]ccc34)cn2)CN([C@H]2CC[C@@H](Oc3cc(CNCCO)cc(C(F)(F)F)n3)CC2)C1 [Example 74, {1-(cis-4-{[4-{[(2-hydroxyethyl)amino]methyl}-6-(trifluoromethyl)pyridin-2-yl]oxy}cyclohexyl)-3-[4-(7H-pyrrolo[2,3-d]pyrimidin-4-yl)-1H-pyrazol-1-yl]azetidin-3-yl}acetonitrile tris(trifluoroacetate)]",≧10,< 10 nM
"C[C@H](CO)NCc1cc(O[C@H]2CC[C@@H](N3CC(CC#N)(n4cc(-c5ncnc6[nH]ccc56)cn4)C3)CC2)nc(C(F)(F)F)c1 [Example 75, {1-(cis-4-{[4-({[(1R)-2-hydroxy-1-methylethyl]amino}methyl)-6-(trifluoromethyl)pyridin-2-yl]oxy}cyclohexyl)-3-[4-(7H-pyrrolo[2,3-d]pyrimidin-4-yl)-1H-pyrazol-1-yl]azetidin-3-yl}acetonitrile tris(trifluoroacetate)]",≧10,< 10 nM
"N#CCC1(n2cc(-c3ncnc4[nH]ccc34)cn2)CN([C@H]2CC[C@@H](Oc3cc(CNC4CCC4)cc(C(F)(F)F)n3)CC2)C1 [Example 77, {1-(cis-4-{[4-[(cyclobutylamino)methyl]-6-(trifluoromethyl)pyridin-2-yl]oxy}cyclohexyl)-3-[4-(7H-pyrrolo[2,3-d]pyrimidin-4-yl)-1H-pyrazol-1-yl]azetidin-3-yl}acetonitrile tris(trifluoroacetate)]",≧10,< 10 nM
"N#CCC1(n2cc(-c3ncnc4[nH]ccc34)cn2)CN([C@H]2CC[C@@H](Oc3cc(CN4CCC4)cc(C(F)(F)F)n3)CC2)C1 [Example 78, {1-(cis-4-{[4-(azetidin-1-ylmethyl)-6-(trifluoromethyl)pyridin-2-yl]oxy}cyclohexyl)-3-[4-(7H-pyrrolo[2,3-d]pyrimidin-4-yl)-1H-pyrazol-1-yl]azetidin-3-yl}acetonitrile tris(trifluoroacetate)]",≧10,< 10 nM
"CNC(=O)c1cc(O[C@H]2CC[C@@H](N3CC(CC#N)(n4cc(-c5ncnc6[nH]ccc56)cn4)C3)CC2)nc(C(F)(F)F)c1 [Example 80, 2-[(cis-4-{3-(cyanomethyl)-3-[4-(7H-pyrrolo[2,3-d]pyrimidin-4-yl)-1H-pyrazol-1-yl]azetidin-1-yl}cyclohexyl)oxy]-N-methyl-6-(trifluoromethyl)isonicotinamide bis(trifluoroacetate)]",≧10,< 10 nM

# Further lines, results first:
JAK2/JAK1 IC50 ratio (human JAK2),IC50 (human JAK1),Compound
≧10,< 10 nM,"N#CCC1(n2cc(-c3ncnc4[nH]ccc34)cn2)CN([C@H]2CC[C@@H](Oc3cc(CN)cc(C(F)(F)F)n3)CC2)C1 [Example 66, {1-(cis-4-{[4-(aminomethyl)-6-(trifluoromethyl)pyridin-2-yl]oxy}cyclohexyl)-3-[4-(7H-pyrrolo[2,3-d]pyrimidin-4-yl)-1H-pyrazol-1-yl]azetidin-3-yl}acetonitrile tris(trifluoroacetate)]"
≧10,< 10 nM,"CNCc1cc(O[C@H]2CC[C@@H](N3CC(CC#N)(n4cc(-c5ncnc6[nH]ccc56)cn4)C3)CC2)nc(C(F)(F)F)c1 [Example 67, {1-(cis-4-{[4-[(methylamino)methyl]-6-(trifluoromethyl)pyridin-2-yl]oxy}cyclohexyl)-3-[4-(7H-pyrrolo[2,3-d]pyrimidin-4-yl)-1H-pyrazol-1-yl]azetidin-3-yl}acetonitrile tris(trifluoroacetate)]"
≧10,< 10 nM,"CC(C)(O)c1cc(O[C@H]2CC[C@@H](N3CC(CC#N)(n4cc(-c5ncnc6[nH]ccc56)cn4)C3)CC2)nc(C(F)(F)F)c1 [Example 69, {1-(cis-4-{[4-(1-hydroxy-1-methylethyl)-6-(trifluoromethyl)pyridin-2-yl]oxy}cyclohexyl)-3-[4-(7H-pyrrolo[2,3-d]pyrimidin-4-yl)-1H-pyrazol-1-yl]azetidin-3-yl}acetonitrile bis(trifluoroacetate)]"
≧10,< 10 nM,"C[C@@H](CO)NCc1cc(O[C@H]2CC[C@@H](N3CC(CC#N)(n4cc(-c5ncnc6[nH]ccc56)cn4)C3)CC2)nc(C(F)(F)F)c1 [Example 73, {1-(cis-4-{[4-({[(1S)-2-hydroxy-1-methylethyl]amino}methyl)-6-(trifluoromethyl)pyridin-2-yl]oxy}cyclohexyl)-3-[4-(7H-pyrrolo[2,3-d]pyrimidin-4-yl)-1H-pyrazol-1-yl]azetidin-3-yl}acetonitrile tris(trifluoroacetate)]"
≧10,< 10 nM,"N#CCC1(n2cc(-c3ncnc4[nH]ccc34)cn2)CN([C@H]2CC[C@@H](Oc3cc(CNCC4CC4)cc(C(F)(F)F)n3)CC2)C1 [Example 76, {1-(cis-4-{[4-{[(cyclopropylmethyl)amino]methyl}-6-(trifluoromethyl)pyridin-2-yl]oxy}cyclohexyl)-3-[4-(7H-pyrrolo[2,3-d]pyrimidin-4-yl)-1H-pyrazol-1-yl]azetidin-3-yl}acetonitrile tris(trifluoroacetate)]"
≧10,< 10 nM,"N#CCC1(n2cc(-c3ncnc4[nH]ccc34)cn2)CN([C@H]2CC[C@@H](Oc3cc(CN4CC(O)C4)cc(C(F)(F)F)n3)CC2)C1 [Example 79, {1-(cis-4-{[4-[(3-hydroxyazetidin-1-yl)methyl]-6-(trifluoromethyl)pyridin-2-yl]oxy}cyclohexyl)-3-[4-(7H-pyrrolo[2,3-d]pyrimidin-4-yl)-1H-pyrazol-1-yl]azetidin-3-yl}acetonitrile tris(trifluoroacetate)]"
≧10,< 10 nM,"CN(C)C(=O)c1cc(O[C@H]2CC[C@@H](N3CC(CC#N)(n4cc(-c5ncnc6[nH]ccc56)cn4)C3)CC2)nc(C(F)(F)F)c1 [Example 81, 2-[(cis-4-{3-(cyanomethyl)-3-[4-(7H-pyrrolo[2,3-d]pyrimidin-4-yl)-1H-pyrazol-1-yl]azetidin-1-yl}cyclohexyl)oxy]-N,N-dimethyl-6-(trifluoromethyl)isonicotinamide bis(trifluoroacetate)]"
≧10,< 10 nM,"CN(CCO)C(=O)c1cc(O[C@H]2CC[C@@H](N3CC(CC#N)(n4cc(-c5ncnc6[nH]ccc56)cn4)C3)CC2)nc(C(F)(F)F)c1 [Example 82, 2-[(cis-4-{3-(cyanomethyl)-3-[4-(7H-pyrrolo[2,3-d]pyrimidin-4-yl)-1H-pyrazol-1-yl]azetidin-1-yl}cyclohexyl)oxy]-N-(2-hydroxyethyl)-N-methyl-6-(trifluoromethyl)isonicotinamide bis(trifluoroacetate)]"
≧10,< 10 nM,"CC(C)NC(=O)c1cc(O[C@H]2CC[C@@H](N3CC(CC#N)(n4cc(-c5ncnc6[nH]ccc56)cn4)C3)CC2)nc(C(F)(F)F)c1 [Example 83, 2-[(cis-4-{3-(cyanomethyl)-3-[4-(7H-pyrrolo[2,3-d]pyrimidin-4-yl)-1H-pyrazol-1-yl]azetidin-1-yl}cyclohexyl)oxy]-N-isopropyl-6-(trifluoromethyl)isonicotinamide bis(trifluoroacetate)]"
≧10,< 10 nM,"C[C@@H](CO)NC(=O)c1cc(O[C@H]2CC[C@@H](N3CC(CC#N)(n4cc(-c5ncnc6[nH]ccc56)cn4)C3)CC2)nc(C(F)(F)F)c1 [Example 84, 2-[(cis-4-{3-(cyanomethyl)-3-[4-(7H-pyrrolo[2,3-d]pyrimidin-4-yl)-1H-pyrazol-1-yl]azetidin-1-yl}cyclohexyl)oxy]-N-[(1S)-2-hydroxy-1-methylethyl]-6-(trifluoromethyl)isonicotinamide bis(trifluoroacetate)]"
